# Results: patent US20230121313A1 (priority 2019, published 2023)
# Tested on: patients with treatment-resistant depression (TRD)
# Experiment: Adverse events, phase 2 dose-response study in TRD
# Format: in vivo, human
# Settings: double-blind
# Procedure: Adverse events were monitored throughout the study. Other safety assessments (i.e., laboratory tests, vital signs, physical examination) were performed at pre-specified time points. Vital signs, the Clinician Administered Dissociative States Scale (CADSS; Bremner, “Measurement of dissociative states with the clinician-administered dissociative states scale (CADSS)”, J. Traumatic Stress, 1998, 11(1):125-136), and the 4-item positive symptom subscale from the Brief Psychiatric Rating Scale (BPRS; Overall, “The Brief Psychiatric Rating Scale. Psychological Reports”, 1962, 10:799-812) were assessed pre-dose, at 40 minutes, and 2 hours post-dose.
# Safety data were analyzed in Period 1, Period 2, double-blind, and open-label data sets, for all subjects receiving at least 1 dose of study medication.
smiles,measurement,setting,value
"CN[C@]1(c2ccccc2Cl)CCCCC1=O [esketamine, (S)-2-(2-chlorophenyl)-2-(methylamino)cyclohexanone]","Dissociation, number of participants","esketamine 28 mg, N = 19",0
same,"Dissociative disorder, % of participants","esketamine 28 mg, N = 19",(11) %
same,"Dissociative disorder, number of participants","esketamine 28 mg, N = 19",2
same,"Dizziness, % of participants","esketamine 28 mg, N = 19",(21) %
same,"Dizziness, number of participants","esketamine 28 mg, N = 19",4
same,"Dysgeusia, % of participants","esketamine 28 mg, N = 19",(11) %
same,"Dysgeusia, number of participants","esketamine 28 mg, N = 19",2
same,"Feeling abnormal, % of participants","esketamine 28 mg, N = 19",(11) %
same,"Feeling abnormal, number of participants","esketamine 28 mg, N = 19",2
same,"Headache, % of participants","esketamine 28 mg, N = 19",(32) %
same,"Headache, number of participants","esketamine 28 mg, N = 19",6
same,"Hypersomnia, % of participants","esketamine 28 mg, N = 19",(11) %
same,"Hypersomnia, number of participants","esketamine 28 mg, N = 19",2
same,"Hypertension, number of participants","esketamine 28 mg, N = 19",0
same,"Hypoesthesia oral, % of participants","esketamine 28 mg, N = 19",(5) %
same,"Hypoesthesia oral, number of participants","esketamine 28 mg, N = 19",1
same,"Insomnia, number of participants","esketamine 28 mg, N = 19",0
same,"Nasal discomfort, number of participants","esketamine 28 mg, N = 19",0
same,"Nausea, % of participants","esketamine 28 mg, N = 19",(11) %
same,"Nausea, number of participants","esketamine 28 mg, N = 19",2
same,"Oropharyngeal pain, number of participants","esketamine 28 mg, N = 19",0
same,"Polyuria, number of participants","esketamine 28 mg, N = 19",0
same,"Sedation, % of participants","esketamine 28 mg, N = 19",(5) %
same,"Sedation, number of participants","esketamine 28 mg, N = 19",1
same,"Throat irritation, % of participants","esketamine 28 mg, N = 19",(5) %
same,"Throat irritation, number of participants","esketamine 28 mg, N = 19",1
same,"Total with events, % of participants","esketamine 28 mg, N = 19",(58) %
same,"Total with events, number of participants","esketamine 28 mg, N = 19",11
same,"Tunnel vision, number of participants","esketamine 28 mg, N = 19",0
same,"Vertigo, % of participants","esketamine 28 mg, N = 19",(11) %
same,"Vertigo, number of participants","esketamine 28 mg, N = 19",2
same,"Vision blurred, number of participants","esketamine 28 mg, N = 19",0
same,"Dissociation, % of participants","esketamine 56 mg, N = 20",(35) %
same,"Dissociation, number of participants","esketamine 56 mg, N = 20",7
same,"Dissociative disorder, % of participants","esketamine 56 mg, N = 20",(5) %
same,"Dissociative disorder, number of participants","esketamine 56 mg, N = 20",1
same,"Dizziness, % of participants","esketamine 56 mg, N = 20",(40) %
same,"Dizziness, number of participants","esketamine 56 mg, N = 20",8
same,"Dysgeusia, % of participants","esketamine 56 mg, N = 20",(15) %
same,"Dysgeusia, number of participants","esketamine 56 mg, N = 20",3
same,"Feeling abnormal, % of participants","esketamine 56 mg, N = 20",(5) %
same,"Feeling abnormal, number of participants","esketamine 56 mg, N = 20",1
same,"Headache, % of participants","esketamine 56 mg, N = 20",(15) %
same,"Headache, number of participants","esketamine 56 mg, N = 20",3
same,"Hypersomnia, number of participants","esketamine 56 mg, N = 20",0
same,"Hypertension, % of participants","esketamine 56 mg, N = 20",(10) %
same,"Hypertension, number of participants","esketamine 56 mg, N = 20",2
same,"Hypoesthesia oral, % of participants","esketamine 56 mg, N = 20",(20) %
same,"Hypoesthesia oral, number of participants","esketamine 56 mg, N = 20",4
same,"Insomnia, % of participants","esketamine 56 mg, N = 20",(10) %
same,"Insomnia, number of participants","esketamine 56 mg, N = 20",2
same,"Nasal discomfort, % of participants","esketamine 56 mg, N = 20",(10) %
same,"Nasal discomfort, number of participants","esketamine 56 mg, N = 20",2
same,"Nausea, % of participants","esketamine 56 mg, N = 20",(20) %
same,"Nausea, number of participants","esketamine 56 mg, N = 20",4
same,"Oropharyngeal pain, % of participants","esketamine 56 mg, N = 20",(5) %
same,"Oropharyngeal pain, number of participants","esketamine 56 mg, N = 20",1
same,"Polyuria, % of participants","esketamine 56 mg, N = 20",(10) %
same,"Polyuria, number of participants","esketamine 56 mg, N = 20",2
same,"Sedation, % of participants","esketamine 56 mg, N = 20",(10) %
same,"Sedation, number of participants","esketamine 56 mg, N = 20",2
same,"Throat irritation, number of participants","esketamine 56 mg, N = 20",0
same,"Total with events, % of participants","esketamine 56 mg, N = 20",(80) %
same,"Total with events, number of participants","esketamine 56 mg, N = 20",16
same,"Tunnel vision, number of participants","esketamine 56 mg, N = 20",0
same,"Vertigo, % of participants","esketamine 56 mg, N = 20",(5) %
same,"Vertigo, number of participants","esketamine 56 mg, N = 20",1
same,"Vision blurred, number of participants","esketamine 56 mg, N = 20",0
same,"Dissociation, % of participants","esketamine 84 mg, N = 17",(24) %
same,"Dissociation, number of participants","esketamine 84 mg, N = 17",4
same,"Dissociative disorder, % of participants","esketamine 84 mg, N = 17",(24) %
same,"Dissociative disorder, number of participants","esketamine 84 mg, N = 17",4
same,"Dizziness, % of participants","esketamine 84 mg, N = 17",(47) %
same,"Dizziness, number of participants","esketamine 84 mg, N = 17",8
same,"Dysgeusia, % of participants","esketamine 84 mg, N = 17",(29) %
same,"Dysgeusia, number of participants","esketamine 84 mg, N = 17",5
same,"Feeling abnormal, % of participants","esketamine 84 mg, N = 17",(6) %
same,"Feeling abnormal, number of participants","esketamine 84 mg, N = 17",1
same,"Headache, % of participants","esketamine 84 mg, N = 17",(18) %
